Measured values as given in ChEMBL document CHEMBL6153145, “Isocoumarins from Spegazzinia sp. MDCW-573 with Antibacterial and Proangiogenic Activities” (2025).
≈ marks a conversion by molar mass, not a printed value. Calls of active or inactive are those of the source. No cut-off for these calls is given here.

Legend:
A549 = experiment: Cytotoxicity against human A549 cells; format: functional, cell-based
HepG2 = experiment: Cytotoxicity against human HepG2 cells; format: functional, cell-based
Danio rerio [1] = organism: Danio rerio; experiment: Induction of pro-angiogenic activity in transgenic Tg (flk1:EGFP) zebrafish model assessed as growth of intersegmental vessel at 20 uM for 24 hrs by olympus fluorescence microscopy analysis; format: functional, organism-based
HCT-116 = experiment: Cytotoxicity against human HCT-116 cells; format: functional, cell-based
HeLa = experiment: Cytotoxicity against human HeLa cells; format: functional, cell-based
Staphylococcus aureus = experiment: Antibacterial activity against Staphylococcus aureus by broth microdilution method; format: functional
MCF7 = experiment: Cytotoxicity against human MCF7 cells; format: functional, cell-based
Danio rerio [2] = organism: Danio rerio; experiment: Induction of pro-angiogenic activity in transgenic Tg (flk1:EGFP) zebrafish model assessed as growth of intersegmental vessel at 40 uM for 24 hrs by olympus fluorescence microscopy analysis; format: functional, organism-based
Danio rerio [3] = organism: Danio rerio; experiment: Induction of pro-angiogenic activity in transgenic Tg (flk1:EGFP) zebrafish model assessed as growth of intersegmental vessel at 10 uM for 24 hrs by olympus fluorescence microscopy analysis; format: functional, organism-based
Escherichia coli = experiment: Antibacterial activity against Escherichia coli by broth microdilution method; format: functional
Pseudomonas aeruginosa = experiment: Antibacterial activity against Pseudomonas aeruginosa by broth microdilution method; format: functional

| Compound | MIC (Staphylococcus aureus) | MIC (Escherichia coli) | MIC (Pseudomonas aeruginosa) | Activity (A549) | Activity (HepG2) | Activity (Danio rerio [1]) | Activity (HCT-116) | Activity (HeLa) | Activity (MCF7) | Activity (Danio rerio [2]) | Activity (Danio rerio [3]) |
| --- | --- | --- | --- | --- | --- | --- | --- | --- | --- | --- | --- |
| COc1c(O)c(Cl)c2c(c1O)C(=O)O[C@H](C)[C@H]2O | 64 µg/mL (≈ 233 µM) | 32 µg/mL (≈ 117 µM) | 32 µg/mL (≈ 117 µM) | inactive | inactive |  | inactive | inactive | inactive |  |  |
| COc1c(O)cc2c(c1O)C(=O)O[C@H](C)[C@H]2OC | 64 µg/mL (≈ 252 µM) | 16 µg/mL (≈ 62.9 µM) | 64 µg/mL (≈ 252 µM) | inactive | inactive |  | inactive | inactive | inactive |  |  |
| C[C@@H]1Cc2cc(O)c(O)c(O)c2C(=O)O1 | 64 µg/mL (≈ 304 µM) | 64 µg/mL (≈ 304 µM) | 32 µg/mL (≈ 152 µM) | inactive | inactive |  | inactive | inactive | inactive |  |  |
| COc1c(O)c(Cl)c2c(c1O)C(=O)O[C@H](C)[C@@H]2O | 64 µg/mL (≈ 233 µM) | 64 µg/mL (≈ 233 µM) | 64 µg/mL (≈ 233 µM) | inactive | inactive |  | inactive | inactive | inactive |  |  |
| CCO[C@H]1c2cc(O)c(OC)c(O)c2C(=O)O[C@@H]1C |  |  |  | inactive | inactive |  | inactive | inactive | inactive |  |  |
| COc1c(O)c(Cl)c2c(c1O)C(=O)O[C@H](C)C2 | 32 µg/mL (≈ 124 µM) | 2 µg/mL (≈ 7.73 µM) | 32 µg/mL (≈ 124 µM) | inactive | inactive |  | inactive | inactive | inactive |  |  |
| O=C(O)c1cn(C2CC2)c2cc(N3CCNCC3)c(F)cc2c1=O [CIPROFLOXACIN] | 0.5 µg/mL (≈ 1.51 µM) |  | 4 µg/mL (≈ 12.1 µM) |  |  |  |  |  |  |  |  |
| C[C@H]1OC(=O)c2c(O)cc(O)cc2[C@H]1Cl | 64 µg/mL (≈ 280 µM) | 32 µg/mL (≈ 140 µM) | 64 µg/mL (≈ 280 µM) | inactive | inactive |  | inactive | inactive | inactive |  |  |
| COc1c(O)cc2c(c1O)C(=O)O[C@H](C)[C@@H]2O | 64 µg/mL (≈ 266 µM) | 8 µg/mL (≈ 33.3 µM) | 64 µg/mL (≈ 266 µM) | inactive | inactive |  | inactive | inactive | inactive |  |  |
| COc1c(O)cc2cc(C)oc(=O)c2c1O | 4 µg/mL (≈ 18 µM) | 16 µg/mL (≈ 72 µM) | 32 µg/mL (≈ 144 µM) | inactive | inactive |  | inactive | inactive | inactive |  |  |
| COc1c(O)c(Cl)c2c(c1O)C(=O)O[C@H](C)[C@H]2OC(C)=O | 32 µg/mL (≈ 101 µM) | 32 µg/mL (≈ 101 µM) | > 64 µg/mL | inactive | inactive | Active | inactive | inactive | inactive | Active | Active |

Second part, led by results:

| MIC (Staphylococcus aureus) | MIC (Escherichia coli) | MIC (Pseudomonas aeruginosa) | Compound | Activity (A549) | Activity (HepG2) | Activity (Danio rerio [1]) | Activity (HCT-116) | Activity (HeLa) | Activity (MCF7) | Activity (Danio rerio [2]) | Activity (Danio rerio [3]) |
| --- | --- | --- | --- | --- | --- | --- | --- | --- | --- | --- | --- |
| 64 µg/mL (≈ 129 µM) | 32 µg/mL (≈ 64.4 µM) | 32 µg/mL (≈ 64.4 µM) | COc1c(O)cc2c(c1O)C(=O)O[C@H](C)[C@@H]2Oc1c(Cl)c2c(c(O)c1OC)C(=O)O[C@H](C)[C@H]2O | inactive | inactive | Active | inactive | inactive | inactive | Active | Active |
| 64 µg/mL (≈ 129 µM) | 8 µg/mL (≈ 16.1 µM) | 64 µg/mL (≈ 129 µM) | COc1c(O)cc2c(c1O)C(=O)O[C@H](C)[C@@H]2Oc1c(Cl)c2c(c(O)c1OC)C(=O)O[C@H](C)[C@@H]2O | inactive | inactive |  | inactive | inactive | inactive |  |  |
| 64 µg/mL (≈ 252 µM) | 16 µg/mL (≈ 62.9 µM) | 64 µg/mL (≈ 252 µM) | COc1c(O)cc2c(c1O)C(=O)O[C@H](C)[C@@H]2OC | inactive | inactive |  | inactive | inactive | inactive |  |  |
| 64 µg/mL (≈ 133 µM) | 64 µg/mL (≈ 133 µM) | 32 µg/mL (≈ 66.5 µM) | COc1c(O)cc2c(c1O)C(=O)O[C@H](C)[C@@H]2Oc1c(Cl)c2c(c(O)c1OC)C(=O)O[C@H](C)C2 | inactive | inactive |  | inactive | inactive | inactive |  |  |
| 64 µg/mL (≈ 133 µM) | 32 µg/mL (≈ 66.5 µM) | 32 µg/mL (≈ 66.5 µM) | COc1c(O)cc2c(c1O)C(=O)O[C@H](C)[C@H]2Oc1c(Cl)c2c(c(O)c1OC)C(=O)O[C@H](C)C2 | inactive | inactive |  | inactive | inactive | inactive |  |  |
| 64 µg/mL (≈ 143 µM) | 1 µg/mL (≈ 2.24 µM) | 32 µg/mL (≈ 71.7 µM) | COc1c(O)cc2c(c1O)C(=O)O[C@H](C)[C@@H]2Oc1cc2c(c(O)c1OC)C(=O)O[C@H](C)C2 | inactive | inactive |  | inactive | inactive | inactive |  |  |
| 64 µg/mL (≈ 129 µM) | 32 µg/mL (≈ 64.4 µM) | 64 µg/mL (≈ 129 µM) | COc1c(O)cc2c(c1O)C(=O)O[C@H](C)[C@H]2Oc1c(Cl)c2c(c(O)c1OC)C(=O)O[C@H](C)[C@H]2O | inactive | inactive | Active | inactive | inactive | inactive | Active | Active |
| 16 µg/mL (≈ 34.6 µM) | 64 µg/mL (≈ 138 µM) | 16 µg/mL (≈ 34.6 µM) | COc1c(O)cc2c(c1O)C(=O)O[C@H](C)[C@H]2Oc1cc2c(c(O)c1OC)C(=O)O[C@H](C)[C@@H]2O | inactive | inactive |  | inactive | inactive | inactive |  |  |
| 64 µg/mL (≈ 129 µM) | 4 µg/mL (≈ 8.05 µM) | 64 µg/mL (≈ 129 µM) | COc1c(O)cc2c(c1O)C(=O)O[C@H](C)[C@H]2Oc1c(Cl)c2c(c(O)c1OC)C(=O)O[C@H](C)[C@@H]2O | inactive | inactive |  | inactive | inactive | inactive |  |  |
| 2 µg/mL (≈ 4.48 µM) | 1 µg/mL (≈ 2.24 µM) | 32 µg/mL (≈ 71.7 µM) | COc1c(O)cc2c(c1O)C(=O)O[C@H](C)[C@H]2Oc1cc2c(c(O)c1OC)C(=O)O[C@H](C)C2 | inactive | inactive |  | inactive | inactive | inactive |  |  |
